Results as given in the NIST ThermoML archive (doi:10.1016/j.jct.2015.09.002).

Assay: xn = mol fraction of the nth substance listed
Conditions: 93.2 kPa, Liquid, Vibrating tube method

CCCCN [1-butanamine] + CC#N
mass density [kg/m3]
Conditions | 293.15 K | 298.15 K | 303.15 K | 308.15 K
x2 = 0 | 737.12 | 732.33 | 727.51 | 722.66
x2 = 0.0102 | 737.48 | 732.7 | 727.88 | 723.03
x2 = 0.0229 | 737.89 | 733.1 | 728.28 | 723.42
x2 = 0.0481 | 738.62 | 733.83 | 729.01 | 724.14
x2 = 0.0616 | 738.99 | 734.2 | 729.37 | 724.51
x2 = 0.2006 | 742.87 | 738.04 | 733.19 | 728.3
x2 = 0.35 | 747.75 | 742.84 | 737.89 | 732.98
x2 = 0.4 | 749.52 | 744.61 | 739.64 | 734.69
x2 = 0.4503 | 751.36 | 746.43 | 741.47 | 736.49
x2 = 0.5007 | 753.36 | 748.41 | 743.43 | 738.41
x2 = 0.5489 | 755.38 | 750.41 | 745.4 | 740.35
x2 = 0.6002 | 757.66 | 752.67 | 747.61 | 742.54
x2 = 0.6492 | 759.99 | 754.96 | 749.88 | 744.78
x2 = 0.6998 | 762.57 | 757.51 | 752.4 | 747.24
x2 = 0.7488 | 765.21 | 760.11 | 754.97 | 749.77
x2 = 0.7997 | 768.18 | 763.02 | 757.82 | 752.57
x2 = 0.85 | 771.3 | 766.08 | 760.83 | 755.54
x2 = 0.9004 | 774.67 | 769.4 | 764.09 | 758.76
x2 = 0.9188 | 775.96 | 770.66 | 765.33 | 759.98
x2 = 0.9498 | 778.23 | 772.9 | 767.54 | 762.15
x2 = 0.96 | 779.01 | 773.67 | 768.29 | 762.89
x2 = 0.9694 | 779.73 | 774.38 | 769 | 763.59
x2 = 0.9804 | 780.56 | 775.21 | 769.81 | 764.38
x2 = 0.9892 | 781.24 | 775.87 | 770.46 | 765.03

CC(C)(C)N [2-methyl-2-propanamine] + CC#N
mass density [kg/m3]
Conditions | 293.15 K | 298.15 K | 303.15 K | 308.15 K
x2 = 0 | 692.06 | 686.65 | 681.18 | 675.66
x2 = 0.009 | 692.79 | 687.38 | 681.92 | 676.4
x2 = 0.0205 | 693.46 | 688.06 | 682.61 | 677.1
x2 = 0.0313 | 694.05 | 688.66 | 683.22 | 677.72
x2 = 0.0421 | 694.67 | 689.29 | 683.85 | 678.36
x2 = 0.0536 | 695.33 | 689.95 | 684.53 | 679.04
x2 = 0.0625 | 695.85 | 690.48 | 685.06 | 679.59
x2 = 0.0694 | 696.27 | 690.86 | 685.44 | 679.97
x2 = 0.0801 | 696.87 | 691.5 | 686.09 | 680.61
x2 = 0.0874 | 697.28 | 691.92 | 686.51 | 681.05
x2 = 0.1006 | 698.07 | 692.74 | 687.34 | 681.89
x2 = 0.1489 | 701.01 | 695.71 | 690.34 | 684.92
x2 = 0.2023 | 704.54 | 699.21 | 693.83 | 688.43
x2 = 0.2493 | 707.7 | 702.41 | 697.06 | 691.72
x2 = 0.3021 | 711.23 | 705.97 | 700.63 | 695.28
x2 = 0.3487 | 714.58 | 709.33 | 704 | 698.63
x2 = 0.3998 | 718.28 | 713.06 | 707.73 | 702.38
x2 = 0.4489 | 721.98 | 716.77 | 711.44 | 706.12
x2 = 0.501 | 726.15 | 720.91 | 715.64 | 710.33
x2 = 0.5485 | 730.26 | 725.04 | 719.77 | 714.47
x2 = 0.6009 | 735.01 | 729.79 | 724.53 | 719.22
x2 = 0.6494 | 739.58 | 734.35 | 729.08 | 723.75
x2 = 0.6932 | 743.94 | 738.74 | 733.46 | 728.14
x2 = 0.7494 | 749.81 | 744.57 | 739.28 | 733.95
x2 = 0.8001 | 755.58 | 750.29 | 744.99 | 739.64
x2 = 0.8497 | 761.5 | 756.2 | 750.87 | 745.51
x2 = 0.8984 | 767.7 | 762.38 | 757.02 | 751.64
x2 = 0.9093 | 769.13 | 763.81 | 758.46 | 753.06
x2 = 0.9202 | 770.57 | 765.25 | 759.88 | 754.48
x2 = 0.9292 | 771.83 | 766.5 | 761.11 | 755.72
x2 = 0.9401 | 773.34 | 768 | 762.61 | 757.2
x2 = 0.9501 | 774.73 | 769.38 | 763.99 | 758.56
x2 = 0.9599 | 776.15 | 770.78 | 765.38 | 759.96
x2 = 0.9699 | 777.57 | 772.2 | 766.79 | 761.36
x2 = 0.9795 | 778.96 | 773.59 | 768.17 | 762.72
x2 = 0.9892 | 780.39 | 775.01 | 769.59 | 764.14
